# Biological target: T1, S. mutans ADP-Glc PPase (GlgC/GlgD) (Streptococcus mutans, UniProt M9TIK1)
# T1 sequence (M9TIK1 1-381): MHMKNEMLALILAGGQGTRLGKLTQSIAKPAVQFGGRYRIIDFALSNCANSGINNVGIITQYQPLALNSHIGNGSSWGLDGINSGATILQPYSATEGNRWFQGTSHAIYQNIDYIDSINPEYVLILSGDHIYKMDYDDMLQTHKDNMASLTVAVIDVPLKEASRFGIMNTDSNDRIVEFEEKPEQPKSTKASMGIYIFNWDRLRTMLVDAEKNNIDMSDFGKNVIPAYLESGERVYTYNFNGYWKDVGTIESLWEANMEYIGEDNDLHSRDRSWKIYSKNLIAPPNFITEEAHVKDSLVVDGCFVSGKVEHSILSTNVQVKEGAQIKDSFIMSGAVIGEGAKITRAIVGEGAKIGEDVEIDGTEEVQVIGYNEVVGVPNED
# T1 sequence (M9TG57 1-377 partner): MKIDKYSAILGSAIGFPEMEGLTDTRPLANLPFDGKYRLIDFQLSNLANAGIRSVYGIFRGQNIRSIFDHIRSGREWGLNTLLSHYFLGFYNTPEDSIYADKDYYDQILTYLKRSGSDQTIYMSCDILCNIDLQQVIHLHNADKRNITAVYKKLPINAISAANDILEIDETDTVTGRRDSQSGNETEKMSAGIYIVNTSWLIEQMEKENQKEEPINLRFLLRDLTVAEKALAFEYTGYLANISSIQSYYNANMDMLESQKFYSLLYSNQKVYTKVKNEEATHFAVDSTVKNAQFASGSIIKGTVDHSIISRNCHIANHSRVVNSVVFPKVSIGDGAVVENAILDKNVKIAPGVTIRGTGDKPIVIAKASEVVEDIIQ
# Details: 2500 µM, pH 8.0, 37 C, allosteric
structure (smiles),measurement,value
"O=P(O)(O)O [Pi, orthophosphate]","No Fru-1,6-bisP / Activity (% remaining activity)",15 ± 2%
